Structures are written as SMILES.

One assay concerns S. aureus (KCCM12256). Description: Growth inhibition experiment in liquid medium (absorbance at 600 nm). Type of assay: cell-based, Staphylococcus aureus. The settings on record: for concentration at which growth was completely inhibited: liquid M9-based medium, 37° C., 200 rpm, OD600. The procedure: (§1) S. aureus (KCCM12256) and S. epidermidis (KCCM35494) distributed from the Korean Culture Center of Microorganisms were used. The medium for Staphylococci used a M9 salt supplemented with 2 mM MgSO4, 0.1 mM CaCl2), 1% (w/v) glucose, 1% (w/v) casamino acid, 1 mM thiamine HCl, and 0.05 mM nicotinamide. The thiamine-HCl solution and the nicotinamide solution were filtered using a filter having a pore size of 0.2 μm, and the other components were autoclaved at 121° C. for 15 minutes and used. After mixing the medium components according to their respective concentrations, the mixture was filtered again using a filter having a pore size of 0.2 μm.
(§2) In the growth inhibition experiment, the S. aureus and the S. epidermidis were seed-cultured at 37° C. and 200 rpm for 24 hours and then subcultured. After incubation up to the mid-exponential phase (OD600=2.5) through the subculture, the bacteria were inoculated into liquid media containing the agarooligosaccharide at concentrations of 0 mg/mL, 1 mg/mL, 2 mg/mL, and 4 mg/mL so that the initial absorbance (i.e., initial cell population) thereof at 600 nm was 0.01. Subsequently, each of the above was dispensed in 200 μl aliquots into a 96-well plate, and absorbance was measured while culturing the bacteria. The incubation and the absorbance measurement were performed using Synergy HTX Multi-Mode Reader commercially available from BioTek Instruments, Inc. The incubation was performed at 37° C. and 200 rpm, and the absorbance was measured at a wavelength of 600 nm. […]
The growth inhibition test of Staphylococci was carried out in the same manner as in Example 1, except that AHG (1, 2, 4, and 8 mg/mL) was used instead of the agarooligosaccharide. […]

The subject of assay [1] is S. aureus. The experiment in a line: Disk diffusion assay. Particulars: 50 to 150 μg/disk, 37° C., 16 hours. In kind it is cell-based, Staphylococcus aureus. Here is the method:
(§3) The disk diffusion assay is a common method of determining whether microbial growth is inhibited based on the diffusion of antibiotics in a disk. Accordingly, agarobiose was dispensed in an amount of 0 to 150 μg/disk on each disk to observe the growth of Staphylococci.
(§4) To this end, a solid medium for a disk diffusion assay having the same composition as in Example 1 was used, except that 1.5% agar was added to the liquid medium. […] First, the disks were prepared such that they contained agarobiose in an aqueous state in amounts of 0, 50, 100, and 150 μg/disk. Subsequently, a staphylococcal culture was streaked on the provided solid medium using a sterile cotton swab so that the Staphylococci were evenly distributed on the medium, and the prepared disks were placed on the solid medium inoculated with the bacteria. Subsequently, after culturing the bacteria at 37° C. for 16 hours, it was observed that a zone of inhibition appeared.
(In agar diffusion tests the substance spreads into inoculated agar from a disc or well.)

Assay [2] relates to S. aureus. The experiment in a line: Number of viable Staphylococci over culture time (CFU count). Type of assay: cell-based, Staphylococcus aureus. The settings on record: agarobiose concentrations of 2 mg/mL or more. Here is the method:
(§5) In order to observe changes in staphylococcal growth according to culture time after the addition of agarobiose, the number of viable Staphylococci was monitored for 16 hours or 32 hours. To this end, the initial cell concentration was adjusted to an average of about 6.5×10^6 CFU/mL for both S. aureus and S. epidermidis, and the experiment was carried out at agarobiose concentrations of 0, 2, and 4 mg/mL.
(§6) The same culture conditions as in the method of Example 1 were applied, except that agarobiose concentrations of 0, 2, and 4 mg/mL were applied. At a working volume of 10 mL, the number of viable cells instead of absorbance was measured. To this end, the original sample was taken at each time point, diluted to 10^−3 to 10^−6 using 0.85% physiological saline, and then dispensed onto a trypticase soy agar (TSA; BD Bioscience, Franklin Lakes, N.J.) medium. After 16 to 24 hours, colony-forming unit (CFU)/mL was calculated and converted based on a dilution factor.

Assay [3] deals with S. epidermidis. The description is as above. Type of assay: cell-based, Staphylococcus epidermidis. Here is the method: as §5, §6
In assay [4] the test system is S. aureus. The experiment in a line: LIVE/DEAD BacLight cell viability assay. Type of assay: cell-based, Staphylococcus aureus. The settings on record: agarobiose 2 mg/mL, 8 hours post-treatment. Here is the method:
The effect of the addition of agarobiose on the survival of S. aureus was tested using an Invitrogen LIVE/DEAD BacLight bacterial viability kit. […] To this end, after adjusting the number of S. aureus in a liquid medium containing agarobiose at 2 mg/mL so that the absorbance at 600 nm was 0.5, the S. aureus was cultured at 37° C. and 200 rpm. At 0 and 8 hours after incubation, the cells were washed with 0.85% physiological saline, resuspended in PBS buffer, and stained in accordance with the kit's protocol. Equal volumes of SYTO® 9 and propidium iodide reagents included in the kit were added and then reacted for 15 minutes in the dark.

Assay [5] has as its system S. epidermidis (KCCM35494). The experiment in a line: Growth inhibition experiment in liquid medium (absorbance at 600 nm). Type of assay: cell-based, Staphylococcus epidermidis. The procedure: as §1
as §2, with “bacteria.” for “bacteria. The incubation and the absorbance measurement were performed using Synergy HTX Multi-Mode Reader commercially available from BioTek Instruments, Inc. The incubation was performed at 37° C. and 200 rpm, and the absorbance was measured at a wavelength of 600 nm.”

Assay [6] deals with S. epidermidis. Description: Disk diffusion assay. In kind it is cell-based, Staphylococcus epidermidis. The settings on record: 50 to 150 μg/disk, 37° C., 16 hours. The procedure:
as §3, §4

Setting [7] is: liquid medium, OD600, 1, 2, 4 and 8 mg/mL tested.

In the case of `OC[C@H]1OC(O)[C@H](O)[C@@H](O[C@@H]2O[C@H]3CO[C@@H]([C@@H]2O)[C@@H]3O)[C@H]1O` (stereo partly drawn) [neoagarobiose, reference compound], the “concentration at which growth was completely inhibited” value with S. aureus (KCCM12256) was above 20 mg/mL.
`OC[C@H]1O[C@@H](O[C@H]2[C@H]3OC[C@@H]2OC(O)[C@H]3O)[C@H](O)[C@@H](O)[C@H]1O` (mixture of isomers) [agarobiose]: the “growth around disk (zone of inhibition)” value with S. aureus [1] and in the assay with S. epidermidis [6] was “did not grow at all” each time. Also, the “growth (viable cell count)” value in the assay on S. aureus [2] and in the assay on S. epidermidis [3] (agarobiose concentrations of 2 mg/mL or more) was “inhibited” each time. The “decrease in number of viable cells from the initial number” value with S. epidermidis [3] (2 mg/mL and 4 mg/mL, culturing for 16 to 32 hours, initial 6.5×10^6 CFU/mL) was ≤ 1.5 log10 (CFU/mL). Further, the “cell viability (green/red fluorescence)” value in the assay with S. aureus [4] was “caused the death of S. aureus”. The “concentration at which growth was completely inhibited” value in the assay on S. aureus (KCCM12256) is recorded as 2 mg/mL; in assay [5] (liquid M9-based medium, 37° C., 200 rpm, OD600), 2 mg/mL.
With `O=C[C@H](O)[C@@H](O)[C@@H](O)[C@H](O)CO` [galactose, reference compound], the growth inhibition result with S. aureus (KCCM12256) (setting [7]) was “not inhibited at all”.
`O=C[C@@H](O)[C@@H]1OC[C@H](O)[C@H]1O` [AHG, 3,6-anhydro-L-galactose]: the “concentration at which growth was almost completely inhibited” value (with S. aureus (KCCM12256) (setting [7]); in assay [5] (setting [7])) was 8 mg/mL throughout.

For the origin of these results see patent publication US11413305B2, “Use of agar-derived oligosaccharides for inhibiting growth of Staphylococcus” (Korea University Research and Business Foundation, priority 2017, dated 2022).
